Source: publication PMC9834766, “Low-molecular-weight anti-HIV-1 agents targeting HIV-1 capsid proteins” (RSC Advances, 2023)
Where two headings read alike, the source gives them in different places.

Legend:
[1] = tested on: HIV-1 (NL4-3 strain); test: Protection against HIV-1 (NL4-3 strain)-induced cytopathogenicity in MT-4 cells, MTT assay; format: cell-based; conditions: 50% protection from HIV-1 (NL4-3 strain)-induced cytopathogenicity in MT-4 cells
Method: (§1) The anti-HIV activity of the synthesized compounds was assessed based on their protection against HIV-1 (NL4-3 strain)-induced cytopathogenicity in MT-4 cells using an MTT assay.[29–33] The cytotoxicity of these compounds was determined based on reduction of the viability of MT-4 cells, as determined by an MTT assay. […] MKN-3 (2) was designed by in silico screening in the same way as MKN-1 (1), and in terms of ligand efficacy MKN-3 (2), with a London dG value of −9.555, has a higher binding affinity than MKN-1 (1), with a London dG value of −9.134, for a CA molecule. The anti-HIV activity of MKN-3 (2) however, is remarkably lower than that of MKN-1 (1). The reason for this might be the poor cell membrane permeability of MKN-3 (2), which therefore could not penetrate the cells. In general, the hydrophobicity of compounds is correlated to their cell membrane permeability. […] We investigated the design of derivatives more hydrophobic than MKN-3 (2). For the design of MKN-3 (2) derivatives, the docking model of MKN-3 (2) and a CA protein was constructed, and a site in the MKN-3 (2) molecule, whose relationship with the interaction with a CA protein is unknown, was sought (Fig. 3). […] Consequently, this amino group was modified by alkylation or amidation, and was converted into a methylene group. Six derivatives (17, 18, 19, TKB063 (25), 26 and 27), with octanoyl, 2-propylpentanoyl, 2-phenylacetyl, i-propyl, n-heptyl or benzyl groups, respectively on the secondary nitrogen atom of the homopiperazine ring of MKN-3 (2), were synthesized. A derivative (29), with a methylene group in place of the secondary amine of the homopiperazine ring, was prepared. […] It was assumed that the anti-HIV activity of these MKN-3 (2) derivatives was increased as a result of their improved hydrophobicity and cell membrane permeability. If the hydrophobicity of such derivatives is higher (log P > 2), the cytotoxicity is higher (CC50 < 10 μM). […] Thus, TKB063 (25) can be seen to have some advantages.
For virus preparation, 293T/17 cells (Invitrogen) maintained in Dulbecco's modified Eagle medium (DMEM) containing 10% FBS, in a T-75 flask were transfected with 10 μg of the pNL4-3 construct by the calcium phosphate method. The supernatant was collected 48 h after transfection, passed through a 0.45 μm filter, and stored at −80 °C as a stock virus.
(§2) The inhibitory activity of test compounds against X4-HIV-1 (NL4-3 strain)-induced cytopathogenicity in MT-4 cells,[83] which are maintained in RPMI-1640 containing 10% FBS, was assessed by an MTT assay. Various concentrations of test compound solutions were added to HIV-1-infected MT-4 cells at multiplicity of infection (MOI) of 0.001, and placed in wells of a 96-well microplate. The test compounds and the reference compounds, e.g. AZT, were diluted by factors of two or five, respectively. After 5 days' incubation at 37 °C in a CO2 incubator, the number of viable cells was determined by the MTT assay. Cytotoxicities of the test compounds were determined based on reduction of the viability of MT-4 cells measured in the MTT assay. A reverse transcriptase inhibitor, AZT, was purchased from Sigma Aldrich and employed as a positive control compound with anti-HIV activity.

[2] = tested on: HIV; conditions: cited from earlier work
[3] = Cytotoxicity: reduction of the viability of MT-4 cells, MTT assay; format: cell-based; conditions: human
Method: as §1, §2

[4] = tested on: MT-4 cells; test: as above; format: cell-based; conditions: Table 3; 50% reduction of the viability of MT-4 cells
Method: as §1, §2

[5] = Human immunodeficiency virus 1, NL43, MT4, Table 2
[6] = Table 2, 50% reduction of the viability of MT-4 cells, read-out: CC50
[7] = Human immunodeficiency virus 1, NL43, MT4, Table 3
[8] = Human immunodeficiency virus 1, NL43, MT4, Table 4
[9] = Table 4, 50% reduction of the viability of MT-4 cells, read-out: CC50

Cc1cn([C@H]2C[C@H](N=[N+]=[N-])[C@@H](CO)O2)c(=O)[nH]c1=O [AZT, reference compound]
EC50 ([1]; Table 2): 0.021 µM
EC50 ([1]; Table 3): 0.025 µM
EC50 ([1]; Table 4): 0.04 µM

C[C@H]1CO[C@@H]2Cn3cc(C(=O)NCc4ccc(F)cc4F)c(=O)c(O)c3C(=O)N12 [Cabotegravir]
IC50/EC50 ([2]; Integrase inhibitor, ref [70]): 0.00025 µM

CCCCCCCC(=O)N1CCCN([C@H](CCSC)C(=O)N2CCNCC2c2c[nH]c3ccccc23)CC1 (stereo partly drawn) [Compound 17]
EC50 [1, 5]: 6 µM
CC50 at 5 days [3, 6]: 8.8 µM

CCCC(CCC)C(=O)N1CCCN([C@H](CCSC)C(=O)N2CCNCC2c2c[nH]c3ccccc23)CC1 (stereo partly drawn) [Compound 18]
EC50 [1, 5]: > 9.1 µM
CC50 at 5 days [3, 6]: 9.1 µM

CSCC[C@H](C(=O)N1CCNCC1c1c[nH]c2ccccc12)N1CCCN(C(=O)Cc2ccccc2)CC1 (stereo partly drawn) [Compound 19]
EC50 [1, 5]: 15 µM
CC50 at 5 days [3]: 33 µM

CCCCCCCN1CCCN([C@H](CCSC)C(=O)N2CCNCC2c2c[nH]c3ccccc23)CC1 (stereo partly drawn) [Compound 26]
EC50 [1, 5]: 2.6 µM
CC50 at 5 days [3, 6]: 4.4 µM

CSCC[C@H](C(=O)N1CCNCC1c1c[nH]c2ccccc12)N1CCCN(Cc2ccccc2)CC1 (stereo partly drawn) [Compound 27]
EC50 [1, 5]: 2.4 µM
CC50 at 5 days [3, 6]: 9 µM

CSCC[C@H](C(=O)N1CCNCC1c1c[nH]c2ccccc12)N1CCCCCC1 (stereo partly drawn) [Compound 29]
EC50 [1, 5]: 10 µM
CC50 at 5 days [3, 6]: 32 µM

COc1cnc(-n2cnc(C)n2)c2c1c(C(=O)C(=O)N1CCN(C(=O)c3ccccc3)CC1)cn2COP(=O)(O)O [Fostemsavir]
IC50/EC50 ([2]; Entry inhibitor, ref [67]): 0.0007 µM

C=C(C)[C@@H]1CC[C@]2(NCCN3CCS(=O)(=O)CC3)CC[C@]3(C)[C@H](CC[C@@H]4[C@@]5(C)CC=C(C6=CC[C@@](CF)(C(=O)O)CC6)C(C)(C)[C@@H]5CC[C@]43C)[C@@H]12 [GSK3640254]
IC90/EC90 ([2]; Maturation inhibitor, ref [69]): (33 nM)

CC(C)(C#Cc1ccc(-c2ccc(Cl)c3c(NS(C)(=O)=O)nn(CC(F)(F)F)c23)c([C@H](Cc2cc(F)cc(F)c2)NC(=O)Cn2nc(C(F)(F)F)c3c2C(F)(F)[C@@H]2C[C@H]32)n1)S(C)(=O)=O [Lenacapavir]
IC50/EC50 ([2]; Capsid inhibitor, ref [71]): 0.0001 µM

CSCC[C@H](C)OC(=O)[C@@H](N)c1ccccc1-c1c[nH]c2ccccc12 [MKN-1 (1), reference compound]
EC50 [1, 5]: 2.2 µM
EC50 [1, 7]: 2.3 µM
CC50 at 5 days [3, 6]: 15 µM

CSCCC(C(=O)N1CCNCC1c1c[nH]c2ccccc12)N1CCCNCC1 (stereo not drawn) [MKN-3 (2)]
EC50 [1, 5]: 42 µM
EC50 [1, 7]: > 50 µM
CC50 at 5 days [3, 6]: > 50 µM

CSCC[C@H](C(=O)N1CCNCC1c1c[nH]c2ccccc12)N1CCCN(C(C)C)CC1 (stereo partly drawn) [TKB063 (25)]
EC50 [1, 5]: 4.5 µM
EC50 [1, 7]: 4.8 µM
EC50 [1, 8]: 9.5 µM
CC50 at 5 days [3, 6]: > 50 µM

CSCCC(C(=O)N1CCNCC1c1c[nH]c2ccccc12)N1CCCN(C(C)C)CC1 (stereo not drawn) [TKB063A (25A)]
EC50 [1, 7]: 5 µM
CC50 at 5 days ([3]; Table 3, 50% reduction of the viability of MT-4 cells, read-out: CC50): > 50 µM

CSCCC(C(=O)N1CCNCC1c1c[nH]c2ccccc12)N1CCCN(C(C)C)CC1 (stereo not drawn) [TKB063B (25B)]
EC50 ([1]; Table 3): 7.4 µM
CC50 [4]: > 50 µM

CCN1CCCN([C@H](CCSC)C(=O)N2CCNCC2c2c[nH]c3ccccc23)CC1 (stereo partly drawn) [TON01 (36)]
EC50 [1, 8]: 20 µM
CC50 at 5 days [3, 9]: > 50 µM

CCCN1CCCN([C@H](CCSC)C(=O)N2CCNCC2c2c[nH]c3ccccc23)CC1 (stereo partly drawn) [TON02 (37)]
EC50 [1, 8]: 8 µM
CC50 at 5 days [3, 9]: > 50 µM

CCC(C)N1CCCN([C@H](CCSC)C(=O)N2CCNCC2c2c[nH]c3ccccc23)CC1 (stereo partly drawn) [TON03 (38)]
EC50 [1, 8]: 6.3 µM
CC50 at 5 days [3, 9]: > 50 µM

Enfuvirtide (T-20): Peptide, fusion inhibitor
IC50/EC50 ([2]; Fusion inhibitor, ref [66]): 0.003 µM

Ibalizumab: Antibody, CD4 binding inhibitor
IC50/EC50 ([2]; CD4 binding inhibitor, ref [68]): 0.00029 µM

Maraviroc
IC90/EC90 ([2]; CCR5 antagonist, ref [65]): (1.0 nM)
